Drawing on PubChem BioAssay (NCI), this text covers GI50 and TGI for ten compounds.

Molecules are shown by their SMILES.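 1) Cells in 96-well plates. 2) Compound, 48 h, 5 concentrations. 3) Linear interpolation between surrounding doses. 4) Unreached endpoint = highest concentration. Here, GI50 denotes the concentration required for 50% inhibition of growth. At the TGI there is no net growth.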

Holding throughout (test): NCI-60 cell line screen, 48 h
For assay [1], the system named is 786-0 renal.
Assay [2] concerns ACHN renal.
For assay [3], the system named is HOP-62 NSCLC.
Assay [4] relates to KM12 colon.
Assay [5] has as its system MCF7 breast.
Assay [6] concerns MDA-MB-435.
Assay [7] has as its system NCI-H23 lung.
For assay [8], the system named is SF-295 CNS.
The subject of assay [9] is SNB-75 CNS.
For assay [10], the system named is SR leukemia.

With `COC(=O)Nc1nc2ccc(C(=O)c3cccc(I)c3)cc2[nH]1`, the GI50 is 0.0848 µM in assay [1]; 0.13 µM in [2]; 0.304 µM in assay [3]; 0.0418 µM in [4]; 0.0369 µM in assay [5]; 0.0211 µM in [6]. For the same compound, the GI50 is 0.183 µM in [7], 0.0647 µM in assay [8], 0.0514 µM in assay [9] and 0.0314 µM in [10]. In addition, the TGI in assay [1] is 6.15 µM; in [2], 21.1 µM; in [3], 38.5 µM; in assay [4], 5.7 µM; in assay [5], 15.9 µM; in [6], 0.051 µM. Further, the TGI in assay [7] came to 21.1 µM; in [8], 5.94 µM; in assay [9], 15.4 µM.
With `C[C@@H]1CC[C@@H]2[C@@H]1[C@H](OC(=O)/C=C/C1CCCCC1)[C@]1(C3CCCCC3)C[C@@H](OC(=O)CO)[C@@]2(C)O1`, the GI50 in assay [1] was 12 µM; in assay [3], 14.6 µM; in assay [4], 14.8 µM; in assay [5] it was 12.8 µM; in assay [6], 15.5 µM; in [7] it was 16.6 µM. The GI50 was 14.3 µM in assay [8], 1.32 µM in [9] and 14 µM in assay [10]. Further, the TGI in assay [1] was 24.1 µM; in assay [3] it was 27.5 µM; in assay [4], 31.1 µM; in assay [5], 25.6 µM; in assay [6], 31 µM; in assay [7], 31.7 µM. Further, the TGI in assay [8] worked out at 26.7 µM; in assay [9] it was 16.5 µM; in [10], 32.9 µM.
On to `Clc1ccc2c(NC3CCC(N4CCCCC4)CC3)ccnc2c1` (stereo not drawn), for which the TGI in assay [1] is 41.7 µM; in assay [2] it was more than 100 µM; in assay [3], more than 100 µM; in assay [4] it was 51.9 µM; in assay [5] it was more than 100 µM; in assay [6], 28.5 µM. In addition, the TGI in assay [7] is more than 100 µM; in assay [8], 36.8 µM; in assay [10], 35.5 µM.
For `c1ccc2c(N=NSc3ncnc4nc[nH]c34)c3ccccc3nc2c1`, the GI50 in assay [1] is 1.79 µM; in assay [2], 0.609 µM; in assay [3], 1.2 µM; in assay [4], 1.61 µM; in assay [5], 0.37 µM; in assay [6] it was 1.97 µM. Also, the GI50 in assay [7] was 1.7 µM; in [8] it was 1.13 µM; in assay [9], 1.35 µM; in assay [10], 1.06 µM. The TGI in assay [1] was 13.8 µM; in assay [2], 7.03 µM; in assay [3], 5.71 µM; in [4], 10.7 µM; in [5] it was 10.4 µM; in [6], 6.12 µM. Moreover, the TGI in [7] was 5.76 µM; in assay [8] it was 9.63 µM; in assay [9], 2.95 µM; in assay [10] it was 8.17 µM.
On to `CC(C)[C@@H](C(=O)O[C@@H]1/C=C/C(=O)O[C@@H](C)CCC/C=C/[C@@H]2C[C@H](O)C[C@H]21)N(C)C`, for which the GI50 is 9.9 µM in assay [1]; 38.4 µM in assay [2]; 22.3 µM in [3]; 2.91 µM in assay [4]; 11.9 µM in assay [5]; 7.43 µM in assay [6]. The GI50 in [7] was 23.3 µM; in [8] it was 6 µM; in [9], 2.89 µM; in assay [10], 14.9 µM. Further, the TGI in assay [1] is 52.3 µM; in assay [2], more than 100 µM; in assay [3], more than 100 µM; in [4], 10.2 µM; in assay [5], 43.1 µM; in [6] it was 41.4 µM. Moreover, the TGI in assay [7] is 91.8 µM; in assay [8], 24.9 µM; in assay [9], 27.7 µM; in assay [10] it was 38.1 µM.
In the case of `C/C(=N\N=C(N)N)C(CN1CCOCC1)C(c1ccccc1)c1c(O)c2ccccc2oc1=O` (stereo not drawn), the TGI in assay [1], in assay [2], in assay [3], in assay [4], in [7] and in assay [8] was more than 100 µM throughout. In addition, the TGI in assay [9] is 99.4 µM; in assay [10] it was more than 100 µM.
Consider `COc1cc(/C=C2\[C@@H]3NC(Cc4c(OC)c(C)c(OC)c(OC)c43)C(=O)N2Cc2ccccc2)c(OC)c(C)c1OC`, for which the TGI in assay [1], in assay [2], in assay [3], in assay [4], in assay [7] and in assay [8] was more than 100 µM in each case. Also, the TGI in assay [9] is more than 100 µM; in [10], 62.8 µM.
Consider `C[C@]12CCC(=O)C=C1C[C@@H](O)[C@@H]1[C@@H]2CC[C@@]2(C)[C@H]1CC[C@]2(C)O`, for which the TGI in [1], in [2], in assay [3], in assay [4], in assay [5] and in assay [6] was more than 100 µM each time. Besides, the TGI in assay [7], in assay [8], in assay [9] and in assay [10] was more than 100 µM in each case.
As for `O=C(CC12C3C4C1C1C2C3C41CC(=O)NO)NO` (stereo not drawn), the TGI in [1], in assay [2], in assay [3], in assay [4], in assay [7] and in assay [8] was more than 100 µM in each case. In addition, the TGI in assay [9] was 81 µM; in assay [10], more than 100 µM.
Regarding `CC1(C)CC(=O)C(CC2C(=O)CCCC2=O)C(=O)C1`, the TGI in [1], in [2], in [3], in assay [4], in assay [7] and in [8] was more than 100 µM throughout. The TGI in assay [9] and in assay [10] was more than 100 µM each time.
